Assay results published in ChEMBL document CHEMBL1201862, “PubChem BioAssay data set” (2004).
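Five compound concentrations were applied to cells in 96-well plates for 48 hours; endpoints were derived by simple linear interpolation of the resulting dose-response curve. GI50 is the concentration that inhibits growth by half.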 Activity calls are given as the source filed them. Rule as the data show it: active = GI50 up to about 1.1 µM and inactive = higher.

How the values were obtained:
Assay in all cases: NCI-60 cell line screen, 48 h
DU-145 = test system: DU-145
HCC 2998 = test system: HCC 2998
HL-60 = test system: HL-60
K562 = test system: K562
MCF7 = test system: MCF7
MDA-MB-231 = test system: MDA-MB-231
NCI-H460 = test system: NCI-H460
OVCAR-5 = test system: OVCAR-5
PC-3 = test system: PC-3
RXF 393 = test system: RXF 393
SK-MEL-28 = test system: SK-MEL-28
SK-MEL-2 = test system: SK-MEL-2
SN12C = test system: SN12C
SNB-19 = test system: SNB-19
SR = test system: SR
U-251 = test system: U-251
UACC-62 = test system: UACC-62
CCRF-CEM = test system: CCRF-CEM
M14 = test system: M14
SK-OV-3 = test system: SK-OV-3

Measured: GI50

CCCC1CC(=O)NC(=O)C1C(=O)OC(C)(C)C (centres undefined)
inactive: DU-145 > 100 µM | HCC 2998 > 100 µM | HL-60 > 100 µM | K562 > 100 µM | MCF7 > 100 µM | MDA-MB-231 > 100 µM | NCI-H460 > 100 µM | OVCAR-5 > 100 µM | PC-3 > 100 µM | RXF 393 > 100 µM | SK-MEL-28 > 100 µM | SK-MEL-2 > 100 µM | SN12C > 100 µM | SNB-19 > 100 µM | SR 64.7 µM | U-251 > 100 µM | UACC-62 > 100 µM

COc1ccc(C2C(C#N)=C(S)N(C3OC(CO)C(O)C(O)C3O)C(C)=C2C(C)=O)cc1 (centres undefined)
inactive: CCRF-CEM > 100 µM | DU-145 > 100 µM | HCC 2998 > 100 µM | HL-60 58.7 µM | K562 59.4 µM | M14 > 100 µM | MCF7 > 100 µM | MDA-MB-231 > 100 µM | NCI-H460 > 100 µM | OVCAR-5 > 100 µM | PC-3 73.1 µM | RXF 393 50 µM | SK-MEL-28 > 100 µM | SK-MEL-2 > 100 µM | SN12C > 100 µM | SNB-19 > 100 µM | SR 56.9 µM | U-251 > 100 µM | UACC-62 86.1 µM

O=C(Nn1c(-c2ccccc2)nc2ccccc2c1=O)c1ccccc1O
inactive: CCRF-CEM 25.2 µM | DU-145 49.1 µM | HCC 2998 70.1 µM | HL-60 27.8 µM | K562 54 µM | M14 51.1 µM | MCF7 28.1 µM | MDA-MB-231 53.5 µM | NCI-H460 41.8 µM | OVCAR-5 49.4 µM | PC-3 28.9 µM | RXF 393 28.2 µM | SK-MEL-28 39.3 µM | SK-OV-3 58.9 µM | SN12C 37.2 µM | SNB-19 45 µM | SR 32.8 µM | U-251 44.5 µM | UACC-62 23.4 µM

C#CCSC(C=C=C)P(=O)(OC(C)C)OC(C)C (centres undefined)
inactive: DU-145 > 100 µM | HCC 2998 28.4 µM | HL-60 38.1 µM | K562 23.7 µM | M14 > 100 µM | MCF7 33.7 µM | MDA-MB-231 > 100 µM | NCI-H460 > 100 µM | OVCAR-5 > 100 µM | PC-3 > 100 µM | RXF 393 > 100 µM | SK-MEL-28 > 100 µM | SK-MEL-2 > 100 µM | SK-OV-3 > 100 µM | SN12C 32.4 µM | SNB-19 > 100 µM | SR 39.5 µM | U-251 > 100 µM | UACC-62 > 100 µM
